# Experimental data taken from BindingDB's records for doi:10.1128/AAC.00802-08 (University of Medicine and Dentistry of New Jersey, 2008).
# How the values were obtained:
# [1] = molecular target: T1, 1,3-beta-D-glucan synthase catalytic subunit (Candida albicans, UniProt O13383); experiment: Inhibition of Candida albicans ATCC 90028 glucan synthase at monophasic kinetics
# T1 sequence (O13383 whole entry): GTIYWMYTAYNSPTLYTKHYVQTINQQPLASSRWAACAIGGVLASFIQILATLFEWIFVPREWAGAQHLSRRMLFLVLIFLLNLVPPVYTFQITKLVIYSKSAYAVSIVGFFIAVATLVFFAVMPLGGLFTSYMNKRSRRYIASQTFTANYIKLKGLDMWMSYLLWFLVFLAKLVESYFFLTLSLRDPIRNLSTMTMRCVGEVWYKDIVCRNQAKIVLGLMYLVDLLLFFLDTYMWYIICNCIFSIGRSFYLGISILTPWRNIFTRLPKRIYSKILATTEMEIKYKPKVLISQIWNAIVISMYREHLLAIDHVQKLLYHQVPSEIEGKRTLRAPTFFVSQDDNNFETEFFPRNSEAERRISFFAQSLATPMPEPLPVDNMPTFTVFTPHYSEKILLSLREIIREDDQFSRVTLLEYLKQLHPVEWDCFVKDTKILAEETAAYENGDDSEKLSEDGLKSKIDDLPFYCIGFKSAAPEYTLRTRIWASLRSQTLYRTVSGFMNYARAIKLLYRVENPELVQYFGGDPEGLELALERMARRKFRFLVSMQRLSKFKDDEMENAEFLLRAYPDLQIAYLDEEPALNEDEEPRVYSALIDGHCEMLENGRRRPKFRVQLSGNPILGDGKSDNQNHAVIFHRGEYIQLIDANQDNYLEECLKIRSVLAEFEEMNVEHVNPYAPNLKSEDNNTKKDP
# [2] = molecular target: T2, 1,3-beta-glucan synthase (Candida tropicalis, UniProt B6S6L8, S80P); experiment: Inhibition of Candida tropicalis T19 blood stream isolate glucan synthase subunit FKS1p with FLTLS/PLRDP mutant at monophasic kinetics
# [3] = molecular target: 1,3-beta-glucan synthase (Candida tropicalis, UniProt B6S6L8, F76L); experiment: Inhibition of Candida tropicalis T26 blood stream isolate glucan synthase subunit FKS1p with LLTLSLRDP mutant at monophasic kinetics
# [4] = molecular target: T2, 1,3-beta-glucan synthase; experiment: Inhibition of Candida tropicalis T3 blood stream isolate glucan synthase subunit FKS1p with FLTLS/PLRDP mutant at monophasic kinetics
# [5] = molecular target: T2, 1,3-beta-glucan synthase; experiment: Inhibition of Candida tropicalis T3 blood stream isolate glucan synthase subunit FKS1p with FLTLS/PLRDP mutant at biphasic kinetics
# [6] = molecular target: T2, 1,3-beta-glucan synthase; experiment: Inhibition of Candida tropicalis T19 blood stream isolate glucan synthase subunit FKS1p with FLTLS/PLRDP mutant at biphasic kinetics
# T2 sequence (B6S6L8 entry or part of it, stated change not applied): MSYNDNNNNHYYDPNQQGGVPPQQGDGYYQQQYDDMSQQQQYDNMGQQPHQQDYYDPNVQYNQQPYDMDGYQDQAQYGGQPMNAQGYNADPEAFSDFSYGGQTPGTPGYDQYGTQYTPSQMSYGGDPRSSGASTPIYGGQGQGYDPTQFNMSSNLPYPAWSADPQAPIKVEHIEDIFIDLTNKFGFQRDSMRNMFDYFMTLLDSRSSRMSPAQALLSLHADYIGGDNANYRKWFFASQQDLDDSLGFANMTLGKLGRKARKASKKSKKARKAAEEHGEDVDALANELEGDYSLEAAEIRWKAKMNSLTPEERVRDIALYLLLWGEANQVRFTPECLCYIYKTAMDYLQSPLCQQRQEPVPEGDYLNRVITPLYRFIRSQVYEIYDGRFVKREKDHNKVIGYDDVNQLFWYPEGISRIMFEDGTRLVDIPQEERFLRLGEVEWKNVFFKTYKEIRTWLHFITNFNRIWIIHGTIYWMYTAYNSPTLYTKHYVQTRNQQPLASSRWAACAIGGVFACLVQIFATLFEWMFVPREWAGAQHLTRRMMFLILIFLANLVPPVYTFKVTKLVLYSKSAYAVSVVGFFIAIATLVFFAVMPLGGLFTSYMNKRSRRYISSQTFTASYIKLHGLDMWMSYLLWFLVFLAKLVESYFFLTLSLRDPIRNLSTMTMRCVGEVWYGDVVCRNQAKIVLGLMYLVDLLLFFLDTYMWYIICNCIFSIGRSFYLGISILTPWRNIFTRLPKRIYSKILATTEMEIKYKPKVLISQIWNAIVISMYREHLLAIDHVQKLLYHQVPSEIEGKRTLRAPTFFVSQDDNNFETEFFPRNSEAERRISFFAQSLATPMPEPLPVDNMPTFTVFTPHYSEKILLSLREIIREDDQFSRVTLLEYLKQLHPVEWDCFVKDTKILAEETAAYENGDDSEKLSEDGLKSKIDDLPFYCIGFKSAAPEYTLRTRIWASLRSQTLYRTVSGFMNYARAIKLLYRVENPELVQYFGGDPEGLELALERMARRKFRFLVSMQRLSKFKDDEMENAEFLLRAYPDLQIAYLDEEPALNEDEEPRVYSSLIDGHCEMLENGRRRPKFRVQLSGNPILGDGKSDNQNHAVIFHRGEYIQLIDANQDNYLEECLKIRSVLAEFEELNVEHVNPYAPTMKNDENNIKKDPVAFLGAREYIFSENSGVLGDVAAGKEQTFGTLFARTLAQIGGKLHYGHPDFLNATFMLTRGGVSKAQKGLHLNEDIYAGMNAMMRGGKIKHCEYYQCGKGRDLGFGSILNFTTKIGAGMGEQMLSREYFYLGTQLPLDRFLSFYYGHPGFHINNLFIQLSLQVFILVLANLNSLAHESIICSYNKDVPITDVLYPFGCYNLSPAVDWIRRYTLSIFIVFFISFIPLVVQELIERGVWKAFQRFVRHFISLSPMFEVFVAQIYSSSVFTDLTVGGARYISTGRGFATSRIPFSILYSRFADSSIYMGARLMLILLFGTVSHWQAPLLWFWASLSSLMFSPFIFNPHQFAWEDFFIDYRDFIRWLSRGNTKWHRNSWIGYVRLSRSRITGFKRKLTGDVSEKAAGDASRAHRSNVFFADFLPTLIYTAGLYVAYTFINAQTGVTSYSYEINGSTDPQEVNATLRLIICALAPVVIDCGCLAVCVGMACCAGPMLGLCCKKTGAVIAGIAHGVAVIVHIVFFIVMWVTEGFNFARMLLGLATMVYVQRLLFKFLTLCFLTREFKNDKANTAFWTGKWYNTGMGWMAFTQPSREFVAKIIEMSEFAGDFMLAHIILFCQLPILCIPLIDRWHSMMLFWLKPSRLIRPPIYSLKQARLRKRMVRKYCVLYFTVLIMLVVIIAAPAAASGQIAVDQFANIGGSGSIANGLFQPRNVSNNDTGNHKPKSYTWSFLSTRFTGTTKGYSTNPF
# Sequence of 1,3-beta-glucan synthase (Candida tropicalis, UniProt B6S6L8, F76L) (B6S6L8 entry or part of it, stated change not applied): as above
smiles,measurement,setting,value
CCC(C)CC(C)CCCCCCCCC(=O)N[C@H]1C[C@@H](O)[C@@H](NCCN)NC(=O)[C@@H]2[C@@H](O)CCN2C(=O)[C@H]([C@H](O)CCN)NC(=O)[C@H]([C@H](O)[C@@H](O)c2ccc(O)cc2)NC(=O)[C@@H]2C[C@@H](O)CN2C(=O)[C@H]([C@@H](C)O)NC1=O (stereo partly specified) [CHEBI:474180],IC50,[1],0.5 nM
same,IC50,[2],0.296 nM
same,IC50,[3],77 nM
same,IC50,[4],0.306 nM
same,IC50,[5],370 nM
same,IC50,[6],264 nM
